Source: patent EP4671365A1, “KIT FOR INDUCING STEM CELLS TO DIFFERENTIATE INTO NK CELLS, USE OF KIT, AND USE OF COMBINATION OF NK CELLS AND TMZ IN TREATMENT FOR TMZ DRUG-RESISTANT GBM” (Xellsmart Biomedical (Suzhou) Co., Ltd, priority 2023, dated 2024)

Columns and labels:
sensitive GBM (U87) = experiment: Cell cycle assay (PI staining, flow cytometry); format: cell-based; details: TMZ 300 µM
Method: (§1) TMZ acts on DNA after being absorbed into tumor cells in the human body, causing alkylation damage to the DNAs, thereby forming DNA double-strand breaks or cross-linking, arresting the cell cycle, and triggering the proliferation arrest or apoptosis of the tumor cells. To explore the mechanism by which the resistant GBM cell strains resist TMZ, a cell cycle assay was performed to determine the effect of TMZ on the cell cycle of different GBM cell strains. A. Cell culture and treatment: See Example 5 for the procedures of U87 and T98G cell culture and TMZ treatment. The concentration of TMZ used in this example was 300 µM. B. Preparation of cell samples: The Beyotime cell cycle kit (Beyotime, C1052) was used according to the manufacturer's instructions. 1 × 10^6 cells were added to a centrifuge tube for later use and centrifuged at 1000 g for 3-5 min to precipitate the cells. The supernatant was discarded by pipetting, and 1 mL of pre-cooled PBS was added to resuspend the cells. The mixture was transferred to a 1.5 mL centrifuge tube. The cells were pelleted by centrifugation, and the supernatant was discarded by pipetting. C. Cell fixation: The cells were added to 1 mL of pre-cooled 70% ethanol, mixed well by pipetting, and fixed at 4 °C for 30 min. The mixture was centrifuged at about 1000 g for 3-5 min to pellet the cells. The supernatant was discarded by pipetting, and about 1 mL of PBS pre-cooled in an ice bath was added to resuspend the cells. The cells were pelleted again by centrifugation, and the supernatant was discarded by pipetting. D. Preparation of and staining with propidium iodide (PI) staining solution: Referring to Table 2, an appropriate amount of PI staining solution was prepared according to the number of samples to be tested. Table 2. Preparation of PI staining solutions
(§2) Staining: 0.5 mL of the PI staining solution was added to each tube of cell samples, and the cell pellet was slowly and fully resuspended and incubated in the dark at 37 °C for 30 min. The mixture was preserved at 4 °C or in an ice bath in the dark. The flow cytometry was completed within 24 h after the staining was completed.
(§3) E. Flow cytometry detection and analysis: The red fluorescence was detected at an excitation wavelength of 488 nm and the light scattering was also detected on a flow cytometer (Agilent, Novocyte3000). The cellular DNA content assay and light scattering analysis were performed using an appropriate analysis software (Agilent, Novoexpress).

resistant GBM (T98G) [1] = experiment: Cell cycle assay (PI staining, flow cytometry); format: cell-based; details: TMZ 300 µM, compared to control DMSO
Method: as §1, §2, §3

TMZ-sensitive GBM (U87) = experiment: CellTiter-Glo cell viability assay, sensitivity response to TMZ; format: cell-based
Method: (§4) U87 and T98G cells were cultured until an 80%-90% confluence and digested with pancreatin (Beyotime, C0201-100mL) at 37 °C for 5 min. DMEM medium (Gibco, 11965084) of a two-fold volume was added to stop the digestion. The cell suspension was transferred to a centrifuge tube and centrifuged at 300 g for 5 min. The cell pellet was resuspended in DMEM medium, and the cells were counted by AO (acridine orange)/PI (propidium iodide) staining. According to the counting result, the density of the cell suspension was adjusted to 1 × 10^5 cells/mL. The cell suspension was added to the 96-well plate at 100 µL/well as required for grouping, and then the 96-well plate was incubated in an incubator at 37 °C overnight.
(§5) TMZ powder (Sigma, T2577-25MG) was dissolved in an appropriate volume of DMSO to prepare a TMZ stock solution at a concentration of 100 mM. The TMZ solution with the highest concentration (5000 µM) was prepared as follows: 225 µL of the TMZ stock solution was diluted with 4.5 mL of DMEM medium, and the resultant solution was then diluted to give TMZ working solutions at concentrations of 1000 µM, 500 µM, 200 µM, 100 µM, and 10 µM.
(§6) After the U87 and T98G cells were cultured overnight, and the adherent growth and the logarithmic growth phase were observed, the TMZ working solutions at the corresponding working concentration were added according to the grouping design at 100 µL/well, and the cells were incubated in the incubator. […]
(§7) The CellTiter-Glo® luminescent cell viability assay kit (Promega, G7572) was used, and the procedures in the manufacturer's instructions were performed. An appropriate volume of the CellTiter-Glo® solution was mixed with a DMEM medium in a ratio of 1:1 to prepare a working solution. The CellTiter-Glo® working solution was added to the 96-well plate at 50 µL/well. The plate was incubated at room temperature for 10 min in the dark and then detected on a microplate reader (TECAN, Infinite®200 PRO) for the chemiluminescence.
(§8) The assay and detection schemes were the same as those in Example 5.1, and a concentration of 300 µM in the sensitive interval in Example 5.1 was selected as the TMZ concentration.

TMZ-resistant GBM (T98G) = experiment: as above; format: cell-based
Method: as §4, §5, §6, §7, §8

[2] = in vivo, cited from earlier work
T98G = experiment: Flow cytometry of immune activation ligands after TMZ treatment; format: cell-based; details: TMZ 1000 µM, 48 h; CD112, CD155, B7-H6, CD54, CD70, CD48, CD1d, PD-L1
From the text: Immune surveillance is an important mechanism for identifying and removing tumor cells, and the dynamic expression of proteins related to immune activation on the membrane of tumor cells is also the key to their recognition by immune cells or recognition escape. In this example, the changes in expression of immune-related proteins when GBM is resisting the effect of TMZ were further studied, so as to provide a theoretical basis for the immunotherapy. • A. GBM cell culture and treatment: See Example 5 for the procedures of T98G cell culture. The cells were cultured until an 80%-90% confluence and digested with pancreatin at 37 °C for 5 min. DMEM medium of a two-fold volume was added to stop the digestion. The cell suspension was transferred to a centrifuge tube and centrifuged at 300 g for 5 min. The cell pellet was resuspended in DMEM medium, and the cells were counted by AO/PI staining. According to the counting result, the density of the cell suspension was adjusted to 1 × 10^5 cells/mL. After that, an appropriate volume of TMZ stock solution (100 mM) was added to the cell suspension to reach a final TMZ concentration of 1000 µM in the cell suspension. […]
The cells treated with TMZ for 48 h were digested with a pancreatin digestion solution and centrifuged, and the supernatant was discarded. […] The cells were washed with PBS, centrifuged, resuspended, and detected on a flow cytometer. […]

resistant GBM (T98G) [3] = experiment: In vitro killing of tumor target cells (CellTiter-Glo); format: cell-based
Method: Furthermore, in this example, the in vitro efficacy of iPSC-NK cells in combination with TMZ was explored by monitoring the killing of tumor target cells. • A. The procedures for the culture, digestion, and plating of GBM tumor cells T98G are described in Example 5. • B. TMZ preparation: See Example 5 for the procedures of treating cells. In this example, the cells were pre-treated at 1000 µM for 48 h. • C. iPSC-NK cells were prepared as described in Example 8. • D. Co-incubation for killing. According to the preset effector-to-target ratios (1:8, 1:4, and 1:1), an appropriate volume of iNK cells in an expansion culture was taken (note that the iNK cell viability should be kept at 90% or higher) and counted by AO/PI staining. According to the counting result, the cell suspension was adjusted to a density of 1 × 10^5 cells/mL. The tumor cells were seeded at 1 × 10^4 cells/well. After the adherent culture of T98G cells in the 96-well plates (6 h after re-digestion and inoculation), the NK cell suspension was added to the T98G plates according to the grouping design. After 18 h of co-incubation, the viability of the T98G cells was detected using the CellTiter-Glo® luminescent cell viability assay kit. Three replicates were set in each group. • E. Cell viability assay. At preset time points (8, 16, 24, and 48 h), the cells were collected. The CellTiter-Glo® luminescent cell viability assay kit was used according to the manufacturer's instructions. An appropriate volume of the CellTiter-Glo® solution was mixed with a DMEM medium in a ratio of 1:1 to prepare a working solution. The CellTiter-Glo® working solution was added to the 96-well plate at 50 µL/well. The plate was incubated at room temperature for 10 min in the dark and then detected on a microplate reader for the chemiluminescence. • F. Killing rate calculation. Killing rate (%) = (fluorescence intensity in the untreated group - fluorescence intensity in the treatment group)/fluorescence intensity in the untreated group × 100%. * denotes p < 0.05 in a T test, and ** denotes p < 0.01. […]

[4] = TMZ 300 µM, 48 h, compared to control DMSO

Cn1nnc2c(C(N)=O)ncn2c1=O [TMZ, 3,4-dihydro-3-methyl-4-oxoimidazo[5,1-d]-asymmetric-tetrazol-8-amide]
DNA content in the G2/M phase (sensitive GBM (U87); 24 h): 16.86%
DNA content in the G2/M phase (sensitive GBM (U87); 48 h): 23.22%
DNA content in the G2/M phase (sensitive GBM (U87); 72 h): 40.01%
DNA in the G2/M phase (resistant GBM (T98G) [1]): did not change significantly
viability at 200 µM (TMZ-sensitive GBM (U87); Homo sapiens, U-87 MG, TMZ 200 µM, 72 h, read-out: viable U87 cell count): ~50%
viability at 300 µM (TMZ-sensitive GBM (U87); Homo sapiens, U-87 MG, TMZ 300 µM, at 72 h, read-out: viable U87 cell count): < 40%
viability at 500 µM (TMZ-sensitive GBM (U87); Homo sapiens, U-87 MG, TMZ 500 µM, 72 h, read-out: viable U87 cell count): ~40%
growth of U87 cells (microscopic results) (TMZ-sensitive GBM (U87); [4]): significantly inhibited
viability at 200 µM (TMZ-resistant GBM (T98G); Homo sapiens, T98G, TMZ 200 µM, 72 h, read-out: viable T98G cell count): ≥ 80%
viability at 300 µM (TMZ-resistant GBM (T98G); Homo sapiens, T98G, TMZ 300 µM, at 72 h, read-out: viable cell count (T98G)): > 80%
viability at 500 µM (TMZ-resistant GBM (T98G); Homo sapiens, T98G, TMZ 500 µM, 72 h, read-out: viable T98G cell count): 70%
growth of T98G cells (microscopic results) (TMZ-resistant GBM (T98G); [4]): not greatly different
oral bioavailability ([2]; po): ~100%
concentration detected in the cerebrospinal fluid, of the TMZ plasma concentration [2]: about 20%
expression of immune activation ligands (T98G): up-regulated expression to different extents
killing effect against target cells (resistant GBM (T98G) [3]; 8 h, 16 h, 24 h and 48 h, effector-to-target ratios 1:8, 1:4, 1:1, TMZ 1000 µM pretreatment 48 h): weak killing effect
killing effects / in vitro killing activity (resistant GBM (T98G) [3]; E:T = 1:1, co-incubation 8 h): substantially no killing effects
killing effect (resistant GBM (T98G) [3]; at 48 h, TMZ 1000 µM): about 10%
